Measurements: PubChem BioAssay AID2060892 (Molecular Pharmacology Branch, DTP, NCI, 2025)
pIC50: −log10 of the molar value.

Test system: HOP-62 complex spheroids with HUVEC/MSC, viability
Assay: Anticancer human tumor HOP-62 cell line growth inhibition [RAS];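 note: spheroids exposed to agents for seven days before readout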;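 for viability, T/C: 100% = DMSO vehicle control viability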
Conditions: for pIC50: curve of first compound; for viability, T/C: stronger effect = lower value
Outline: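 Tumour cells grown as complex spheroids with HUVEC endothelial cells and mesenchymal stem cells, treated with RAS pathway inhibitor combinations. Each agent spans half-log steps from near clinical Cmax, or 10 microM where Cmax is unknown.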

[1] = second compound 0.000949 µM, first compound 0.0316 µM
[2] = second compound 0.000949 µM, first compound 0.1 µM
[3] = second compound 0.000949 µM, first compound 0.316 µM
[4] = second compound 0.000949 µM, first compound 1 µM
[5] = second compound 0.000949 µM, first compound 3.16 µM
[6] = second compound 0.000949 µM, first compound 10 µM
[7] = second compound 0.003 µM, first compound 0.0316 µM
[8] = second compound 0.003 µM, first compound 0.1 µM
[9] = second compound 0.003 µM, first compound 0.316 µM
[10] = second compound 0.003 µM, first compound 1 µM
[11] = second compound 0.003 µM, first compound 3.16 µM
[12] = second compound 0.003 µM, first compound 10 µM
[13] = second compound 0.00949 µM, first compound 0.0316 µM
[14] = second compound 0.00949 µM, first compound 0.1 µM
[15] = second compound 0.00949 µM, first compound 0.316 µM
[16] = second compound 0.00949 µM, first compound 1 µM
[17] = second compound 0.00949 µM, first compound 3.16 µM
[18] = second compound 0.00949 µM, first compound 10 µM
[19] = second compound 0.03 µM, first compound 0.0316 µM
[20] = second compound 0.03 µM, first compound 0.1 µM
[21] = second compound 0.03 µM, first compound 0.316 µM
[22] = second compound 0.03 µM, first compound 1 µM
[23] = second compound 0.03 µM, first compound 3.16 µM
[24] = second compound 0.03 µM, first compound 10 µM
[25] = second compound 0.0949 µM, first compound 0.0316 µM
[26] = second compound 0.0949 µM, first compound 0.1 µM
[27] = second compound 0.0949 µM, first compound 0.316 µM
[28] = second compound 0.0949 µM, first compound 1 µM
[29] = second compound 0.0949 µM, first compound 3.16 µM
[30] = second compound 0.0949 µM, first compound 10 µM
[31] = second compound 0.3 µM, first compound 0.0316 µM
[32] = second compound 0.3 µM, first compound 0.1 µM
[33] = second compound 0.3 µM, first compound 0.316 µM
[34] = second compound 0.3 µM, first compound 1 µM
[35] = second compound 0.3 µM, first compound 3.16 µM
[36] = second compound 0.3 µM, first compound 10 µM

CC1(O)CCCC1n1c(=O)c(C(F)F)cc2cnc(NC3CCN(S(C)(=O)=O)CC3)nc21 (centres undefined) + CCn1c(-c2cccnc2C(C)OC)c2c3cc(ccc31)N1CCOC(CC(NC(=O)C(C(C)C)N(C)C(=O)C3(F)CCN(C(=O)C#CC(C)(C)N(C)C)CC3)C(=O)N3CCCC(N3)C(=O)OCC(C)(C)C2)C1
pIC50 (second compound 0.000949 µM): 5.32
pIC50 (second compound 0.003 µM): 5.35
pIC50 (second compound 0.00949 µM): 5.47
pIC50 (second compound 0.03 µM): 5.93
pIC50 (second compound 0.0949 µM): 5.79
pIC50 (second compound 0.3 µM): 6.11
viability, T/C [1]: 107%
viability, T/C [2]: 87.9%
viability, T/C [3]: 58%
viability, T/C [4]: 86.6%
viability, T/C [5]: 77.8%
viability, T/C [6]: 2.45%
viability, T/C [7]: 94.1%
viability, T/C [8]: 65.2%
viability, T/C [9]: 54.5%
viability, T/C [10]: 67.6%
viability, T/C [11]: 70.9%
viability, T/C [12]: 2.8%
viability, T/C [13]: 83%
viability, T/C [14]: 59.1%
viability, T/C [15]: 61%
viability, T/C [16]: 60%
viability, T/C [17]: 55.9%
viability, T/C [18]: 2.82%
viability, T/C [19]: 89.5%
viability, T/C [20]: 80.2%
viability, T/C [21]: 57.5%
viability, T/C [22]: 60.5%
viability, T/C [23]: 33%
viability, T/C [24]: 2.88%
viability, T/C [25]: 80.6%
viability, T/C [26]: 67.1%
viability, T/C [27]: 56.8%
viability, T/C [28]: 59.7%
viability, T/C [29]: 43.4%
viability, T/C [30]: 2.21%
viability, T/C [31]: 71.7%
viability, T/C [32]: 63.1%
viability, T/C [33]: 56.5%
viability, T/C [34]: 51.9%
viability, T/C [35]: 21.2%
viability, T/C [36]: 2.92%

CCC(CC)c1cc(NC2CCC(N)C2)n2nccc2n1 (centres undefined) + CCn1c(-c2cccnc2C(C)OC)c2c3cc(ccc31)N1CCOC(CC(NC(=O)C(C(C)C)N(C)C(=O)C3(F)CCN(C(=O)C#CC(C)(C)N(C)C)CC3)C(=O)N3CCCC(N3)C(=O)OCC(C)(C)C2)C1
pIC50 (second compound 0.000949 µM): 5.71
pIC50 (second compound 0.003 µM): 5.70
pIC50 (second compound 0.00949 µM): 5.73
pIC50 (second compound 0.03 µM): 5.74
pIC50 (second compound 0.0949 µM): 5.75
pIC50 (second compound 0.3 µM): 5.77
viability, T/C [1]: 126%
viability, T/C [2]: 107%
viability, T/C [3]: 96.3%
viability, T/C [4]: 110%
viability, T/C [5]: 6.83%
viability, T/C [6]: 1.38%
viability, T/C [7]: 116%
viability, T/C [8]: 101%
viability, T/C [9]: 109%
viability, T/C [10]: 118%
viability, T/C [11]: 7.77%
viability, T/C [12]: 0.66%
viability, T/C [13]: 91.4%
viability, T/C [14]: 96.5%
viability, T/C [15]: 101%
viability, T/C [16]: 121%
viability, T/C [17]: 5.15%
viability, T/C [18]: 0.65%
viability, T/C [19]: 98.5%
viability, T/C [20]: 99.6%
viability, T/C [21]: 100%
viability, T/C [22]: 113%
viability, T/C [23]: 2.86%
viability, T/C [24]: 0.81%
viability, T/C [25]: 91.7%
viability, T/C [26]: 98.4%
viability, T/C [27]: 96.9%
viability, T/C [28]: 104%
viability, T/C [29]: 1.59%
viability, T/C [30]: 0.78%
viability, T/C [31]: 82.5%
viability, T/C [32]: 86.8%
viability, T/C [33]: 95%
viability, T/C [34]: 95%
viability, T/C [35]: 3.22%
viability, T/C [36]: 1.08%
